From patent publication US7357916B2, “Method for creating a uniform vascular wound in zebrafish or zebrafish larva” (priority 2002, dated 2008)
Read-outs that look alike come from different tables or passages of the source.

Experiments:
zebrafish larvae [1] = test system: zebrafish larvae
Description: (§1) For screening studies, larvae at three to five days postfertilization (dpf) were placed in 500 μL of water and an equal volume of phenylhydrazine (40 mmol/L phenylhydrazine HCl (PHZ), Sigma, MO) or FeCl3 (40 mmol/L) solution was added. Each larva, along with 9 μL of solution, was placed in a 3 mm×1 mm×3 mm well of an acrylic viewing chamber (narrow wells limited the motion of larvae for better viewing). For recording purposes, larvae were also immobilized in agarose, as described below, and 100 μl of either FeCl3 or PHZ were layered on top of the agarose block. Vascular occlusion was recorded using an inverted Olympus microscope equipped with a Javelin MOS solid-state camera (Japan) connected to a VHS recorder.

zebrafish larvae [2] = assay: Vascular occlusion by laser irradiation, time to occlusion (TTO); type: in vivo; conditions: normal TTO 17±5.0 seconds; for Time to occlusion (TTO), laser irradiation assays: embryos microinjected with morpholino, screened at 3 dpf
Description: For laser irradiation treatment, 1 to 5 larvae (3 mm) were placed in 250 μL of water and anesthetized with 10 μl of Tricaine solution (300 μmol/L, Sigma, MO). 250 μL of 1% low-melting agarose solution (at 40° C.) were added to the anesthetized larvae and each larva, along with approximately 100 μL of agarose solution, was positioned inside a viewing well that was formed by placing a plastic ring on a glass microscope slide. Before treatment, water was allowed to soak into the agarose blocks to wash out the anesthetic. Pulsed nitrogen laser light pumped through coumarin 440 dye (445 nm) (MicroPoint Laser system, Photonic Instruments Inc, IL) at seven pulses/second was delivered to larvae for five seconds through a 10× objective on a Nikon Optiphot microscope. The progress of occlusion was recorded using a Nikon CoolPix 995 CCD camera.
Larvae at 2 and 3 dpf were treated with warfarin as described (Hanumanthaiah et al., 2001, specifically incorporated herein by reference) for 24 hours. Larvae were rinsed in water and tested with either chemical or laser methods of vessel injury. Morpholinos (Discovery Genomics Inc.) were designed against 5′-UTR around the translational start site of zebrafish factor VII (Sheehan et al., 2001, specifically incorporated herein by reference or factor VIIi (Hanumanthaiah et al., 2002, specifically incorporated herein by reference). Sequences were as follows:
For each morpholino a working solution (2 mg/mL) was prepared as previously described (Nasevicius & Ekker, 2000, specifically incorporated herein by reference). Embryos were generated by in vitro fertilization as described (Westerfield, 2000, specifically incorporated herein by reference) and 9 nL of either morpholino solution were injected into the yolk of embryos at the single to four cell stages. Control embryos were microinjected with an equal volume of PBS. Embryos were maintained at 28° C. and screened at 3 dpf.

erythrocytes = assay: Annexin V binding, flow cytometry of blood cells from treated adult zebrafish; type: in vivo; conditions: 5 mmol/L for five minutes, FITC annexin V
Description: Adult zebrafish were placed in a 500 mL solution of phenylhydrazine (5 mmol/L phenylhydrazine HCl, pH 7.2 in 20 mmol/L Tris) or FeCl3 (5 mmol/L) for five minutes and then rinsed with de-ionized water. Two μL of blood were collected, as described (Jagadeeswaran et al., 2000a, specifically incorporated herein by reference), from control or treated zebrafish and blood cells were isolated by centrifugation of the blood sample at 800 g for two minutes, followed by removal of the supernatant. The cell pellet was washed once with 200 μL of PBS, centrifuged and resuspended in 200 μL of binding buffer (ApoAlert; Clontech, Calif.) followed by addition of 5 μL of FITC conjugated Annexin-V (Clontech, Calif.). Samples were incubated for ten minutes in dark at 25° C. and visualized ulsing a 20× UplanApo objective on an Olympus FV500 confocal microscope or processed by flow cytometry (Gregory & Jagadeeswaran, 2002).

zebrafish larvae [3] = assay: Vascular occlusion with phenylhydrazine, time to occlusion (TTO); type: in vivo
Description: as §1

[4] = larvae treated with warfarin for 24 hours

Compound: [Cl][Fe]([Cl])[Cl] [FeCl3, ferric chloride]
- Time to occlusion (TTO) induced by the agent, mean±standard deviation (zebrafish larvae [1]; wild type larvae at three dpf, n=1000): 6 ± 2 min

Compound: 5′-CAAGCAGCAGACTC ATATTTACTGC-3′ (SEQ ID NO:1) (antisense CAAGCAGCAGACTCATATTTACTGC; all phosphorodiamidate morpholino (PMO)) [FVIIas]
- Time to occlusion (TTO), laser irradiation assays (zebrafish larvae [2]): 55 ± 9 s

Compound: Cl.NNc1ccccc1 [phenylhydrazine, phenylhydrazine HCl]
- Erythrocytes exhibiting externalization of PS (erythrocytes): approximately 18%
- Time to occlusion (TTO) induced by the agent, mean±standard deviation (zebrafish larvae [3]; wild type larvae at four dpf, n=500): 10 ± 2.5 min

Compound: 5′-GTCACTGACCTCAGCCTGTTCACAA-3′ (SEQ ID NO:2) (morpholino, further chemistry not given here) [FVIIias]
- Time to occlusion (TTO), laser irradiation assays (zebrafish larvae [2]): 9 ± 3 s

Compound: CC(=O)CC(c1ccccc1)c1c(O)c2ccccc2oc1=O (centres unmarked) [Warfarin, warfarin]
- Time to occlusion (TTO), FeCl3 injury (zebrafish larvae [1]; larvae treated with warfarin for 24 hours, normal TTO 6±2 minutes): > 10 min
- Time to occlusion (TTO), laser irradiation injury (zebrafish larvae [2]; [4]): > 1 min
- Effect on TTO in phenylhydrazine induced vascular occlusion (zebrafish larvae [3]; [4]): did not affect TTO
